Measurements reported in US11180496B2 (Daewoong Pharmaceutical Co., Ltd., priority 2017, dated 2021).
pIC50: −log10 of the molar value.

Legend:
[1] = target: T1, BTK (Homo sapiens, UniProt Q06187); experiment: BTK inhibitory activity, ADP-Glo + BTK Kinase enzyme system kit (Promega); type: biochemical; conditions: BTK enzyme 1 ng/uL, ATP 10 uM, 15 min preincubation, luminescence, duplicate
T1 construct: purchased Promega
Procedure: (§1) The inhibitory activity against BTK and ITK of the compounds prepared in Examples above were measured as follows.
(§2) The inhibitory activity against BTK was evaluated using ‘ADP-Glo™+BTK Kinase enzyme system’ kit from Promega. […] 5 uL of substrate and 5 uL of ATP prepared at a final concentration of 10 uM were added to all wells of the plate after completion of the reaction, and allowed to react at 30° C. for 1 hour. All wells of the plate after completion of the reaction were treated with 25 uL of ADP-Glo™ reagent and reacted at 30° C. for 40 minutes. Then, 50 uL of the kinase detection buffer was applied to all wells of the plate, and then the light was blocked and reacted at 30° C. for 30 minutes. For the plate for which all reactions were completed, the luminescence was measured and the results were calculated. The evaluation was performed in duplicate. The respective values of negative and positive controls, depending on whether the enzymes were added without treatment of the compound, were determined, and IC50 was calculated based on the values.

[2] = target: T2, ITK (Homo sapiens, UniProt Q08881); experiment: ITK inhibitory activity, ADP-Glo + ITK Kinase enzyme system kit (Promega); type: biochemical; conditions: ITK enzyme 0.4 ng/uL, ATP 25 uM, 15 min preincubation, luminescence, duplicate
T2 construct: purchased Promega
T2 sequence (Q08881 1-620): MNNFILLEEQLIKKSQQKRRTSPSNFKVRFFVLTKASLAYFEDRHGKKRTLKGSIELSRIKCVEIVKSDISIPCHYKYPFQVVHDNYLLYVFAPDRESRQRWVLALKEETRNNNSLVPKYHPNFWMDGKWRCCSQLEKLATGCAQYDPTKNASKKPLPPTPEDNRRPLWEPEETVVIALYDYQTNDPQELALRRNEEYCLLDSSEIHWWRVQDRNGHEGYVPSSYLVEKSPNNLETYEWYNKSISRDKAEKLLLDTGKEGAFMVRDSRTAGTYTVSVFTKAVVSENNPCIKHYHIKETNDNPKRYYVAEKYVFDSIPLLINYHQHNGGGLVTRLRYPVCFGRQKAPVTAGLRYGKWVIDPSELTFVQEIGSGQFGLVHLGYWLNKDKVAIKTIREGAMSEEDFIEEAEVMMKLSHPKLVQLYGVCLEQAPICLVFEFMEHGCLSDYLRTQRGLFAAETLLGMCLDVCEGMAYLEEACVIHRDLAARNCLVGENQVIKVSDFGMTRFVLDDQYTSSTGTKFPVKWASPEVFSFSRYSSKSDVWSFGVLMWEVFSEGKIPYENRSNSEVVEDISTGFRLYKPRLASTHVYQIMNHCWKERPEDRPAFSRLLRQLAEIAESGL
Procedure: as §1
as §2, with “ITK” for “BTK”, “‘ADP-Glo™+ITK” for “‘ADP-Glo™+BTK”, “25” for “10”

T1 sequence (Q06187 whole entry): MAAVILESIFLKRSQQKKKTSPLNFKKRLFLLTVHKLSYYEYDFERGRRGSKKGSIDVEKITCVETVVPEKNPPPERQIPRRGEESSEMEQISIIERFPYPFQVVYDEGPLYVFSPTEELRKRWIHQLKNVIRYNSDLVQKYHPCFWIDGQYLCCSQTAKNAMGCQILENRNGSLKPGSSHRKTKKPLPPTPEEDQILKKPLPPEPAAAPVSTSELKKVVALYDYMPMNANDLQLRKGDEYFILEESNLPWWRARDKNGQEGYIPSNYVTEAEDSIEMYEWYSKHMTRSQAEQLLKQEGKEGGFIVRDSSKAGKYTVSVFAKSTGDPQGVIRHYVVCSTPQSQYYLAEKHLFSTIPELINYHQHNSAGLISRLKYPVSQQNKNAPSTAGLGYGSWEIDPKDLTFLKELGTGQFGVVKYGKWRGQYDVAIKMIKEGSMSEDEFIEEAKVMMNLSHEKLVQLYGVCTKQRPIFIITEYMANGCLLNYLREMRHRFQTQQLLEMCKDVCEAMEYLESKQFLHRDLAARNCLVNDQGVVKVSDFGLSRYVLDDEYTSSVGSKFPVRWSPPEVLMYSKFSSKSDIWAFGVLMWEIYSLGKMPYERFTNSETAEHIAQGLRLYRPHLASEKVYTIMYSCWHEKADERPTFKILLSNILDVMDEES

Row | SMILES | pIC50 [1] | pIC50 [2]
1 | C=CC(=O)N1CCC[C@@H](n2nc(Nc3cnn(C4CC4)c3)c3c(N)nccc32)C1 [Example 61, (R)-1-(3-(4-amino-3-(1-cyclopropyl-1H-pyrazol-4-ylamino)-1H-pyrazolo[4,3-c]pyridin-1-yl)piperidin-1-yl)prop-2-en-1-one] | 6.73 | < 6.00
2 | C=CC(=O)N1CCCC(n2nc(-c3ccc(Oc4ccccc4)cc3)c3c(N)ncc(Cc4ccccc4)c32)C1 (stereo not shown) [Example 6, 1-(3-(4-amino-7-benzyl-3-(4-phenoxyphenyl)-1H-pyrazolo[4,3-c]pyridin-1-yl)piperidin-1-yl)prop-2-en-1-one] | 7.52 | 6.54
3 | C=CC(=O)N1CCC[C@@H](n2nc(-c3ccc(C(=O)Nc4ccccn4)cc3Cl)c3c(N)ncc(C#N)c32)C1 [Example 66, (R)-4-(1-(1-acryloylpiperidin-3-yl)-4-amino-7-cyano-1H-pyrazolo[4,3-c]pyridin-3-yl)-3-chloro-N-(pyridin-2-yl)benzamide] | 8.89 | 8.89
4 | C=CC(=O)N1CCC[C@@H](n2nc(C(=O)Nc3ccccc3)c3c(N)ncc(Cl)c32)C1 [Example 78, (R)-1-(1-acryloylpiperidin-3-yl)-4-amino-7-chloro-N-phenyl-1H-pyrazolo[4,3-c]pyridine-3-carboxamide] | 7.66 | 7.57
5 | C=CC(=O)N1CCC[C@@H](n2nc(-c3ccc(C(=O)Nc4ccccc4)cc3)c3c(N)ncc(Cl)c32)C1 [Example 23, (R)-4-(1-(1-acryloylpiperidin-3-yl)-4-amino-7-chloro-1H-pyrazolo[4,3-c]pyridin-3-yl)-N-phenyl benzamide] | 8.92 | 7.32
6 | CC#CC(=O)N1CC[C@H](n2nc(-c3ccc(C(=O)Nc4ccccc4)cc3)c3c(N)nccc32)C1 [Example 48, (S)-4-(4-amino-1-(1-but-2-ynoylpyrrolidin-3-yl)-1H-pyrazolo[4,3-c]pyridin-3-yl)-N-phenylbenzamide] | < 6.40 | < 6.00
7 | C=CC(=O)N1CCCC(n2nc(-c3ccc(Oc4ccccc4)cc3)c3c(N)ncc(Br)c32)C1 (stereo not shown) [Example 10, 1-(3-(4-amino-7-bromo-3-(4-phenoxyphenyl)-1H-pyrazolo[4,3-c]pyridin-1-yl)piperidin-1-yl)prop-2-en-1-one] | 8.68 | 7.97
8 | C#CC(=O)N1CCC(n2nc(-c3ccc(Oc4ccccc4)cc3)c3c(N)nccc32)CC1 [Example 4, 1-(4-(4-amino-3-(4-phenoxyphenyl)-1H-pyrazolo[4,3-c]pyridin-1-yl)piperidin-1-yl)prop-2-yn-1-one] | 8.26 | 6.56
9 | C=CC(=O)N1CCC[C@@H](n2nc(-c3ccc(C(=O)Nc4ccccn4)cc3Cl)c3c(N)ncc(C=C)c32)C1 [Example 69, (R)-4-(1-(1-acryloylpiperidin-3-yl)-4-amino-7-vinyl-1H-pyrazolo[4,3-c]pyridin-3-yl)-3-chloro-N-(pyridin-2-yl)benzamide] | 8.70 | 8.54
10 | C=CC(=O)N1CCC[C@@H](n2nc(-c3ccc(C(=O)Nc4ccccc4)cc3)c3c(N)ncc(Br)c32)C1 [Example 24, (R)-4-(1-(1-acryloylpiperidin-3-yl)-4-amino-7-bromo-1H-pyrazolo[4,3-c]pyridin-3-yl)-N-phenyl benzamide] | 8.92 | 7.43
11 | C=CC(=O)N1CCC[C@@H](n2nc(-c3ccc(C(=O)Nc4ccccn4)cc3Cl)c3c(N)ncc(-c4cnn(C)c4)c32)C1 [Example 67, (R)-4-(1-(1-acryloylpiperidin-3-yl)-4-amino-7-(1-methyl-1H-pyrazol-4-yl)-1H-pyrazolo[4,3-c]pyridin-3-yl)-3-chloro-N-(pyridin-2-yl)benzamide] | 8.70 | 8.57
12 | C=CC(=O)N1CCC[C@@H](n2nc(Br)c3c(N)nccc32)C1 [Example 62, (R)-1-(3-(4-amino-3-bromo-1H-pyrazolo[4,3-c]pyridin-1-yl)piperidin-1-yl)prop-2-en-1-one] | 8.20 | 8.09
13 | C=CC(=O)N1CCC[C@H](n2nc(-c3ccc(C(=O)Nc4ccccn4)cc3)c3c(N)nccc32)C1 [Example 39, (S)-4-(1-(1-acryloylpiperidin-3-yl)-4-amino-1H-pyrazolo[4,3-c]pyridin-3-yl)-N-(pyridin-2-yl)benzamide] | 8.46 | < 6.00
14 | C=CC(=O)N1CCC[C@@H](n2nc(-c3ccc(C(=O)Nc4ccccn4)cc3)c3c(N)ncc(I)c32)C1 [Example 21, (R)-4-(1-(1-acryloylpiperidin-3-yl)-4-amino-7-iodo-1H-pyrazolo[4,3-c]pyridin-3-yl)-N-(pyridin-2-yl)benzamide] | 7.97 | < 6.00
15 | C=C(C)C(=O)N1CCC[C@@H](n2nc(-c3ccc(C(=O)Nc4ccccn4)cc3F)c3c(N)nccc32)C1 [Example 54, (R)-4-(4-amino-1-(1-methacryloylpiperidin-3-yl)-1H-pyrazolo[4,3-c]pyridin-3-yl)-3-fluoro-N-(pyridin-2-yl)benzamide] | 7.11 | < 6.00
16 | C=CC(=O)N1CCC(n2nc(-c3ccc(Oc4ccccc4)cc3)c3c(N)ncc(I)c32)CC1 [Example 12, 1-(4-(4-amino-7-iodo-3-(4-phenoxyphenyl)-1H-pyrazolo[4,3-c]pyridin-1-yl)piperidin-1-yl)prop-2-en-1-one] | 8.11 | < 6.00
17 | C=CC(=O)N1CC(n2nc(-c3ccc(C(=O)Nc4ccccn4)cc3F)c3c(N)ncc(Cl)c32)C1 [Example 60, 4-(1-(1-acryloylazetidin-3-yl)-4-amino-7-chloro-1H-pyrazolo[4,3-c]pyridin-3-yl)-3-fluoro-N-(pyridin-2-yl)benzamide] | 9.40 | 6.58
18 | C=CC(=O)N1CCC[C@@H](n2nc(-c3ccc(C(=O)Nc4ccccc4)cc3)c3c(N)ncc(-c4cnn(C5CCN(C)CC5)c4)c32)C1 [Example 35, (R)-4-(1-(1-acryloylpiperidin-3-yl)-4-amino-7-(1-(1-methylpiperidin-4-yl)-1H-pyrazol-4-yl)-1H-pyrazolo[4,3-c]pyridin-3-yl)-N-phenylbenzamide] | 8.72 | 7.21
19 | C=CC(=O)N1CCC[C@@H](n2nc(-c3ccc(C(=O)Nc4ccccc4)cc3)c3c(N)ncc(-c4cnn(CCN(C)C)c4)c32)C1 [Example 36, (R)-4-(1-(1-acryloylpiperidin-3-yl)-4-amino-7-(1-(2-(dimethylamino)ethyl)-1H-pyrazol-4-yl)-1H-pyrazolo[4,3-c]pyridin-3-yl)-N-phenylbenzamide] | 8.82 | 7.05
20 | C=CC(=O)N1CCC[C@@H](n2nc(-c3ccc(C(=O)Nc4ccccn4)cc3F)c3c(N)ncc(Cl)c32)C1 [Example 49, (R)-4-(1-(1-acryloylpiperidin-3-yl)-4-amino-7-chloro-1H-pyrazolo[4,3-c]pyridin-3-yl)-3-fluoro-N-(pyridin-2-yl)benzamide] | 8.92 | 8.48
21 | C#CC(=O)N1CCCC(n2nc(-c3ccc(Oc4ccccc4)cc3)c3c(N)nccc32)C1 (stereo not shown) [Example 2, 1-(3-(4-amino-3-(4-phenoxyphenyl)-1H-pyrazolo[4,3-c]pyridin-1-yl)piperidin-1-yl)prop-2-yn-1-one] | 8.46 | 7.80
22 | C=CC(=O)N1CCC[C@@H](n2nc(-c3ccc(C(=O)Nc4ccccn4)cc3OC)c3c(N)nccc32)C1 [Example 57, (R)-4-(1-(1-acryloylpiperidin-3-yl)-4-amino-1H-pyrazolo[4,3-c]pyridin-3-yl)-3-methoxy-N-(pyridin-2-yl)benzamide] | 9.30 | 7.94
23 | C=CC(=O)N1CC[C@H](n2nc(-c3ccc(C(=O)Nc4ccccc4)cc3)c3c(N)nccc32)C1 [Example 47, (S)-4-(1-(1-acryloylpyrrolidin-3-yl)-4-amino-1H-pyrazolo[4,3-c]pyridin-3-yl)-N-phenylbenzamide] | 6.75 | < 6.00
